Laboratory results as given in patent US8895727B2, “Method for preparation of fluorine-18-labeled flumazenil using diaryliodonium salt precursor” (priority 2011, dated 2014).

Assay: Stability of diaryliodonium salt precursors under heating and base conditions (HPLC of by-products I-mazenil and H-mazenil)
Format: physicochemical
Conditions: for relative instability of precursor (stability of 8f set forth to be 1.00): 150° C., 15 min, K2.2.2./K2CO3 in dimethylformamide, without fluorine-18, ratio relative to 8f (FIG. 6)
Experimental: Contrary to the expectation that the diaryliodonium salt precursors (8b to 8e) could be labeled at higher yields than precursor 8a thanks to their higher electron densities, a lower labeling yield of fluorine18 was detected for them at high temperatures in the presence of a base. This might be accounted by the significance of the stability of the precursors. To verify this, the precursors were analyzed for stability in the […] to examine the reactivity of each precursor. In the following Reaction Scheme 2, the degradation of each diaryliodonium salt precursor in the presence of base under a heating condition is illustrated. As shown, two compounds I-mazenil (9) and H-mazenil (10) are formed, and their concentrations reflect the stability of the diaryliodonium salt precursor.
The diaryliodonium salt precursors whose aromatic rings are richer in electron density, compared to phenyl-mazenil-iodonium salt (8a), are more apt to be affected by the reaction conditions for aromatic fluorination with fluorine-18. […] To examine the selectivity and stability of the diaryliodonium salts, the production of the by-products I-mazenil (9) and H-mazenil(10) which are degraded from the precursors due to their instability in a condition free of fluorine-18 was analyzed using HPLC. […]
After each diaryliodonium salt precursor was thermally treated 150° C. for 15 min in the presence of kryptofix2.2.2./potassium carbonate (K2.2.2./K2CO3) in dimethylformamide, without fluorine-18, measurement was made of the concentrations of 1-mazenil (9) and H-mazenil (10) to evaluate the stability of each precursor (FIG. 6). In addition, the labeling reactivity of the diaryliodonium salt precursors into [19F]flumazenil was assessed by reacting them with cesium fluoride at 90° C. for 120 min in dimethylformamide (FIG. 7). […]

| Compound | relative instability of precursor (stability of 8f set forth to be 1.00) | stability among the diaryliodonium salt precursors (potassium carbonate and 150° C., similar results with TBAHCO3 and TBAOH (FIG. 6)) |
| --- | --- | --- |
| CCOC(=O)c1ncn2c1CN(C)C(=O)c1cc([I+]c3ccc(C)cc3)ccc1-2.Cc1ccc(S(=O)(=O)[O-])cc1 [Precursor 8f, ethyl 8-(4-methylphenyl)(iodonium tosylate)-5,6-dihydro-5-methyl-6-oxo-4H-imidazo[1,5-a][1,4]benzodiazepine-3-carboxylate] | 1.00 | the most stable |
| CCOC(=O)c1ncn2c1CN(C)C(=O)c1cc([I+]c3ccccc3)ccc1-2.Cc1ccc(S(=O)(=O)[O-])cc1 [Precursor 8a, ethyl 8-phenyl(iodonium tosylate)-5,6-dihydro-5-methyl-6-oxo-4H-imidazo[1,5-a][1,4]benzodiazepine-3-carboxylate] | 1.11 | – |
